Test results reported in the supplement of paper PMC11451515.

Tested on: NOMO1
Experiment: cell viability relative to DMSO control; higher = less cytotoxic
Details: 48 h
Outline: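 Leukemia cells (NOMO1 or SEM, 500 cells/well; P12-Ichikawa, 1000 cells/well) were seeded in 5 μl in 1536-well plates after at least four passages of adaptation to each medium. They received library compounds in DMSO by pin dosing, 11 threefold points from 47 μM to 0.79 nM. Luminescence with CellTiter-Glo One was read after 48 h at 37°C. Viability is stated per plate relative to DMSO wells, with cell-free wells as background.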

[1] = HPLM + 10% dialyzed FBS, 0.000781 µM
[2] = HPLM + 10% dialyzed FBS, 0.00234 µM
[3] = HPLM + 10% dialyzed FBS, 0.00702 µM
[4] = HPLM + 10% dialyzed FBS, 0.0211 µM
[5] = HPLM + 10% dialyzed FBS, 0.0632 µM
[6] = HPLM + 10% dialyzed FBS, 0.19 µM
[7] = HPLM + 10% dialyzed FBS, 0.569 µM
[8] = HPLM + 10% dialyzed FBS, 1.71 µM
[9] = HPLM + 10% dialyzed FBS, 5.12 µM
[10] = HPLM + 10% dialyzed FBS, 15.4 µM
[11] = HPLM + 10% dialyzed FBS, 46.1 µM
[12] = RPMI 5 mM glucose + 10% FBS, 0.000781 µM
[13] = RPMI 5 mM glucose + 10% FBS, 0.00234 µM
[14] = RPMI 5 mM glucose + 10% FBS, 0.00702 µM
[15] = RPMI 5 mM glucose + 10% FBS, 0.0211 µM
[16] = RPMI 5 mM glucose + 10% FBS, 0.0632 µM
[17] = RPMI 5 mM glucose + 10% FBS, 0.19 µM
[18] = RPMI 5 mM glucose + 10% FBS, 0.569 µM
[19] = RPMI 5 mM glucose + 10% FBS, 1.71 µM
[20] = RPMI 5 mM glucose + 10% FBS, 5.12 µM
[21] = RPMI 5 mM glucose + 10% FBS, 15.4 µM
[22] = RPMI 5 mM glucose + 10% FBS, 46.1 µM
[23] = RPMI 5 mM glucose + 10% dialyzed FBS, 0.000781 µM
[24] = RPMI 5 mM glucose + 10% dialyzed FBS, 0.00234 µM
[25] = RPMI 5 mM glucose + 10% dialyzed FBS, 0.00702 µM
[26] = RPMI 5 mM glucose + 10% dialyzed FBS, 0.0211 µM
[27] = RPMI 5 mM glucose + 10% dialyzed FBS, 0.0632 µM
[28] = RPMI 5 mM glucose + 10% dialyzed FBS, 0.19 µM
[29] = RPMI 5 mM glucose + 10% dialyzed FBS, 0.569 µM
[30] = RPMI 5 mM glucose + 10% dialyzed FBS, 1.71 µM
[31] = RPMI 5 mM glucose + 10% dialyzed FBS, 5.12 µM
[32] = RPMI 5 mM glucose + 10% dialyzed FBS, 15.4 µM
[33] = RPMI 5 mM glucose + 10% dialyzed FBS, 46.1 µM

| Structure (SMILES) | cell viability [1] | cell viability [2] | cell viability [3] | cell viability [4] | cell viability [5] | cell viability [6] | cell viability [7] | cell viability [8] | cell viability [9] | cell viability [10] | cell viability [11] | cell viability [12] | cell viability [13] | cell viability [14] | cell viability [15] | cell viability [16] | cell viability [17] | cell viability [18] | cell viability [19] | cell viability [20] | cell viability [21] | cell viability [22] | cell viability [23] | cell viability [24] | cell viability [25] | cell viability [26] | cell viability [27] | cell viability [28] | cell viability [29] | cell viability [30] | cell viability [31] | cell viability [32] | cell viability [33] |
| --- | --- | --- | --- | --- | --- | --- | --- | --- | --- | --- | --- | --- | --- | --- | --- | --- | --- | --- | --- | --- | --- | --- | --- | --- | --- | --- | --- | --- | --- | --- | --- | --- | --- |
| C#Cc1cccc(Nc2ncnc3cc(OCCOC)c(OCCOC)cc23)c1 | 94.2% | 104% | 101% | 83.7% | 108% | 86% | 90.9% | 110% | 79.3% | 75.3% | 45.7% | 85.4% | 96.9% | 102% | 102% | 93.2% | 91.8% | 95% | 93.7% | 89.7% | 85.1% | 70.7% | 92.2% | 85.5% | 88.9% | 83.4% | 86.6% | 83.8% | 85.4% | 89% | 77.6% | 84% | 50.2% |
| COC1=CC2=NC=CC(=C2C=C1)OC3=CN=C(NC(=O)C/4=C(C)/N(CC(C)(C)O)N(C4=O)C5=CC=CC=C5)C=C3 | 82% | 87.4% | 86.3% | 101% | 103% | 107% | 98.9% | 96.4% | 69.1% | 88% | 62.1% | 78.8% | 92% | 88.6% | 95% | 91.7% | 91.7% | 91.2% | 98.7% | 85.6% | 93.4% | 81.8% | 73.7% | 86.8% | 91.6% | 88.2% | 97.7% | 83.1% | 96.6% | 84.8% | 77.2% | 94.1% | 64% |
| CCCCn1c(=O)n(Cc2ccccc2F)c(=O)c2nc(Cc3ccc(NC(C)=O)cc3)[nH]c21 | 97.6% | 155% | 75.7% | 24.9% | 52.4% | 77.6% | 86% | 76.5% | 78.6% | 68.6% | 71.2% | 82.3% | 82.9% | 78.1% | 79.5% | 82.5% | 77.8% | 83.9% | 82.4% | 79.5% | 86.7% | 76.9% | 107% | 108% | 106% | 104% | 125% | 59.5% | 57.7% | 89.6% | 69.4% | 63.8% | 68.8% |
| CCC[C@H](NC(=O)/C(C#N)=C/c1cccc(Br)n1)c1ccccc1 |  |  |  |  |  |  |  |  |  |  |  | 110% | 123% | 116% | 111% | 111% | 107% | 103% | 108% | 104% | 111% | 4.55% | 109% | 114% | 122% | 115% | 109% | 117% | 120% | 116% | 108% | 99.9% | 4.54% |
| CC1=CC=CC=C1N2\C(=N/C3=C(C(=CC=C3)C)C2=O)C[N]4C=NC5=C4N=CN=C5N |  |  |  |  |  |  |  |  |  |  |  | 107% | 106% | 122% | 108% | 110% | 106% | 107% | 94.4% | 69.2% | 72.9% | 67% | 108% | 109% | 109% | 97.1% | 113% | 92.6% | 94.8% | 80.8% | 67.2% | 64.5% | 61.1% |
| Cn1c(=O)c2c(ncn2C)n(C)c1=O.O=C(O)CC(O)(CC(=O)O)C(=O)O | 118% | 106% | 123% | 133% | 105% | 114% | 100% | 104% | 98.9% | 86% | 109% | 95.4% | 98.9% | 107% | 101% | 115% | 104% | 106% | 106% | 101% | 91.2% | 93.8% | 93.8% | 113% | 109% | 106% | 114% | 107% | 119% | 98.6% | 97.3% | 89.2% | 85.4% |
| Cc1ccc(NC(=O)c2ccc(CN3CCN(C)CC3)cc2)cc1Nc1nc(-c2cccnc2)cs1 | 103% | 98.1% | 99.3% | 105% | 96.6% | 89.3% | 82.6% | 75.3% | 76.8% | 73% | 75.2% | 95.9% | 104% | 93% | 94.9% | 99.4% | 102% | 89.3% | 108% | 107% | 106% | 74.6% | 97.2% | 102% | 98.6% | 104% | 93.4% | 111% | 87.1% | 86.1% | 85.9% | 78.8% | 74.3% |
| COc1cc2c(cc1-c1c(C)noc1C)ncc1[nH]c(=O)n([C@H](C)c3ccccn3)c12 |  |  |  |  |  |  |  |  |  |  |  | 122% | 110% | 114% | 115% | 111% | 99.8% | 108% | 98.2% | 30.8% | 30.5% | 22% | 114% | 124% | 98.3% | 118% | 124% | 117% | 118% | 102% | 30.1% | 35.6% | 22.7% |
